{"source": "patent US11365181B2", "about": "“P-phenylenediamine derivative as potassium channel regulator and preparation method and medical application thereof” (Shanghai Zhimeng Biopharma, Inc., priority 2018, dated 2022)", "data": [{"biological_target": "KCNQ2 potassium channel (CHO-KCNQ2 cells) (Homo sapiens (Human), UniProt O43526)", "sequence (O43526 whole entry)": "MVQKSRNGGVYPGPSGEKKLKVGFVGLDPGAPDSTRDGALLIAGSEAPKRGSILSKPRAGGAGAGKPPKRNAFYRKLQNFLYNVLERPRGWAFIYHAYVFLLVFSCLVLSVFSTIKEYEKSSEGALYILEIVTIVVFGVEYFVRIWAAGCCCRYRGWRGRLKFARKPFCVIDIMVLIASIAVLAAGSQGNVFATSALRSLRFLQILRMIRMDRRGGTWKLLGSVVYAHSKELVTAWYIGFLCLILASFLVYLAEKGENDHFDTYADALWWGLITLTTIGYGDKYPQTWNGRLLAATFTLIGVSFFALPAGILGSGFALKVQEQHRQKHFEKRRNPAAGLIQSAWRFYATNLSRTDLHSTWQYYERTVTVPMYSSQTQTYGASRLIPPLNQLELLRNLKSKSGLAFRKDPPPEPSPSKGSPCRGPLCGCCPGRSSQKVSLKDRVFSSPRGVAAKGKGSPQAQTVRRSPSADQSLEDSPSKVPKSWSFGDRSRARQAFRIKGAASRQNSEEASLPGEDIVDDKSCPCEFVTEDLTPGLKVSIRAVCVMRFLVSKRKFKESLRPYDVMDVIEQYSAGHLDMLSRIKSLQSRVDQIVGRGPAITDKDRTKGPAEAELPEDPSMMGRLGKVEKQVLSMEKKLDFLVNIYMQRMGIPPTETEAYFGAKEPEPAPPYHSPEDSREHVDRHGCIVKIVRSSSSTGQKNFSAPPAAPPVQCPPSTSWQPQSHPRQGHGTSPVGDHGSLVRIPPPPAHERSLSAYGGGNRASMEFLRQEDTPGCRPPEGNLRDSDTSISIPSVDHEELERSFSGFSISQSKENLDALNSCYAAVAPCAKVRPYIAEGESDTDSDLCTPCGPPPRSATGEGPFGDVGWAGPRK", "test": "Activity test of potassium ion channel opener (FDSS/μCELL detection, FluxOR potassium ion channel assay)", "type": "cell-based", "conditions": "CHO-KCNQ2 cells, FluxOR fluorescence, FDSS/μCELL", "procedure": "Activity Test of Potassium Ion Channel Opener (FDSS/ρCELL Detection)\nCell preparation: CHO-KCNQ2 cells were cultured in a 175 cm^2 culture flask, and when the cells was grown to a density of 60-80%, the culture medium was removed, washed with 7 mL PBS (Phosphate Buffered Saline) once, then 3 mL 0.25% Trypsin was added to digest. After the digestion was completed, 7 mL culture medium (90% DMEM/F12+10% FBS+500 μg/mL G418) was added to neutralize, centrifugated for 3 minutes at 800 rpm. The supernatant was aspirated, then 5 mL culture medium was added to resuspend, and then the cells were counted.\nCell plating: The density to 3×10^4/well was adjusted according to the results of cell counting. After standing at room temperature for 30 minutes, the cells were placed in a 37° C. CO2 incubator and incubated overnight for 16-18 hours. The cell density reached about 80%.\nFluorescent dye incubation: The cell culture medium was discarded, 80 μL/well loading buffer was added, and the cells were incubated in dark at room temperature for 60 minutes.\nCompound incubation: the loading buffer was discarded, 80 μL/well prepared compound solution was added, incubated at room temperature and in dark for 20 minutes.\nFluorescence data collection: FDSS/μCELL instrument for real-time fluorescence is used for signal recording, wherein excitation wavelength was 480 nm, emission wavelength was 540 nm, and signals were recorded 1 times per second, after baseline was recorded for 10 seconds, the addition of 20 μL/well stimulation buffer was started, and then the signal was continuously record until the end of 180 seconds.\nloading buffer: 10 mL/plate, the preparation method was as follows:\nTest buffer sample: 100 mL/plate, the preparation method was as follows:\nStimulation buffer: 5 mL/plate, the preparation method was as follows:\nThe above buffer was from a commercially available kit, the kit name was FluxOR potassium ion channel assay, the manufacturer's brand was Invitrogen, the article number was F10017, the lot number was 913728.\n20 mM DMSO compound mother liquor was prepared, 10 μL of 20 mM compound mother liquor was took and added into 20 μL DMSO solution, serially diluted 3 times to 8 intermediate concentrations; then the middle concentration of the compound was took to the test buffer, 200 times dilution to get the final concentration to be tested, 80 μL was took and added to the test plate.\nThe highest test concentration was 100 μM, followed by […], 33.33, 11.11, 3.70, 1.23, 0.41, 0.137, 0.045 μM, total 8 concentrations. Each concentration 3 replicate holes.\nThis concentration of DMSO had no effect on the KCNQ2 potassium channel.\nExperimental data was analyzed by Excel 2007 and GraphPad Prism 5.0 software, and the ratio of 180 seconds was calculated to calculate the excitement effect. The excitement effect of the compound is calculated by the following formula: […]\nEnvironment: Temperature about 25° C.\nReagent: FluxOR™ Detection Kit (Invitrogen, Cat #[…])\nThe experimental data in the report might meet the following criteria: Z′ Factor>0.5\n2. Determination Results: See Table 1 for Details, where the Smaller EC50 was, the Higher the Activity of the Corresponding Compound was.\nReferences for the above test methods:\n(2) Jinfeng Yue et al. Acta Pharmacologica Sinica, 2016, 37:105-110.", "units": {"EC50": "µM"}, "values": [{"smiles": "Cc1cc(N2CCCc3cccnc3C2)cc(C)c1NC(=O)CC(C)(C)C", "note": "[Compound 03029, N-(2,6-dimethyl-4-(5,6,7,9-tetrahydro-8H-pyrido[2,3-c]azepin-8-yl)phenyl)-3,3-dimethylbutanamide]", "EC50": 14.7}, {"smiles": "Cc1ccc2c(c1)COCCN2c1cc(C)c(NC(=O)CC(C)(C)C)c(C)c1", "note": "[Compound 03066]", "EC50": 0.049}, {"smiles": "Cc1cc(N2CCc3cc(F)ccc3C2)cc(C)c1NC(=O)CC(C)(C)C", "note": "[Compound B, reference compound]", "EC50": 0.098}, {"smiles": "Cc1cc(N2CCCc3cscc3C2)cc(C)c1NC(=O)CC(C)(C)C", "note": "[Compound 03027, N-(2,6-dimethyl-4-(4,6,7,8-tetrahydro-5H-thieno[3,4-c]azepin-5-yl)phenyl)-3,3-dimethylbutanamide]", "EC50": 0.147}, {"smiles": "Cc1cc(N2CCCCc3sccc32)cc(C)c1NC(=O)CC(C)(C)C", "note": "[Compound 03034, (N-(2,6-dimethyl-6-(1-tert-butylacetyl)aniline))-(5,6,7,8-tetrahydro-4H)-thieno [3,2]azaanthracene]", "EC50": 0.071}, {"smiles": "Cc1cc(N2CCCCc3sc(Cl)cc32)cc(C)c1NC(=O)CC(C)(C)C", "note": "[Compound 03049, N-(4-(2-chloro-5,6,7,8-tetrahydro-4H-thieno[3,2-b]azepin-4-yl)-2,6-dimethylphenyl)-3,3-dimethylbutanamide]", "EC50": 0.26}, {"smiles": "Cc1cc(N2CCCc3sccc3C2)cc(C)c1NC(=O)CC(C)(C)C", "note": "[Compound 03028, N-(2,6-dimethyl-4-(4,6,7,8-tetrahydro-5H-thieno[3,2-c]azepin-5-yl)phenyl)-3,3-dimethylbutanamide]", "EC50": 0.272}, {"smiles": "Cc1cc(N2CCCc3ccsc3C2)cc(C)c1NC(=O)CC(C)(C)C", "note": "[Compound 03026, N-(2,6-dimethyl-4-(4,5,6,8-tetrahydro-7H-thieno[2,3-c]azepin-7-yl)phenyl)-3,3-dimethylbutanamide]", "EC50": 0.088}, {"smiles": "Cc1cc(N2CCCCc3ncccc32)cc(C)c1NC(=O)CC(C)(C)C", "note": "[Compound 03037, N-(2,6-Dimethyl-4-(6,7,8,9-tetrahydro-5H-pyrido[32-b]azepin-5-yl)phenyl)-3,3-dimethylbutanamide]", "EC50": 6.48}, {"smiles": "Cc1cc(N2CCOc3cc(F)ccc32)cc(C)c1NC(=O)CC(C)(C)C", "note": "[Compound 03060, N-(2,6-dimethyl-6-(1-tert-butylacetyl)aniline)) 4-(7-fluoro-2,3-dihydro-4H-benzo[1,4] oxazine]", "EC50": "> 100"}, {"smiles": "O=C(Nc1ccc(Cl)nc1)c1ccc(F)cc1", "note": "[ZTZ240, reference compound]", "EC50": 8.23}, {"smiles": "Cc1cc(N2CCCOc3cc(F)ccc32)cc(C)c1NC(=O)CC(C)(C)C", "note": "[Compound 03059, N-(4-(8-fluoro-3,4-dihydrobenzo[b] [1,4]oxazepine-5(2H)-yl)-2,6-dimethylphenyl)-3,3-dimethylbutanamide]", "EC50": 0.86}, {"smiles": "Cc1cc2c(s1)CCCCN2c1cc(C)c(NC(=O)CC(C)(C)C)c(C)c1", "note": "[Compound 03039, N-(2,6-dimethyl-4-(2-methyl-5,6,7,8-tetrahydro-4H-thieno[3,2-b]azepin-4-yl)phenyl)-3,3-dimethylbutyramide]", "EC50": 0.409}]}]}
